Test results from publication PMC8011931, “Identification, Structure–Activity Relationship, and Biological Characterization of 2,3,4,5-Tetrahydro-1H-pyrido[4,3-b]indoles as a Novel Class of CFTR Potentiators” (Journal of Medicinal Chemistry, 2020).

Columns and labels:
Type in all cases: cell-based
[1] = target: T1, F508del-CFTR (Homo sapiens, UniProt P13569, DEL508-508); assay: HS-YFP assay on F508del-CFTR CFBE41o- cells, acute stimulation; design: expressed in transfected cells; settings: acute stimulation in the presence of forskolin, Figure 4A
Procedure: The preliminary activity of these three hits was further evaluated in secondary screening assays. Although featuring the same common scaffold, in order to possibly discriminate the most interesting hit for further structural investigations, the compounds belonging to the family of tetrahydro-γ-carbolines were tested on more relevant cell models. First, the hits were tested on an immortalized bronchial epithelial cell line (CFBE41o-) stably expressing F508del-CFTR and HS-YFP. […]
Prior assay, cells were washed with phosphate-buffered saline (PBS) containing (in mM) 137 NaCl, 2.7 KCl, 8.1 Na2HPO4, 1.5 KH2PO4, 1 CaCl2, and 0.5 MgCl2. […] Cells were then transferred to microplate readers (FluoStar Optima; BMG Labtech, Offenburg, Germany) for CFTR activity determination. The plate readers were equipped with high-quality excitation (HQ500/20X: 500 ± 10 nm) and emission (HQ535/30M: 535 ± 15 nm) filters for YFP (Chroma Technology). The assay consisted of a continuous 14 s fluorescence reading, 2 s before and 12 s after injection of 165 μL of an iodide-containing solution (PBS with Cl^– replaced by I^–; final I^– concentration 100 mM). Data were normalized to the initial background-subtracted fluorescence. […]

[2] = target: T1, F508del-CFTR; assay: HS-YFP-based assay for CFTR activity on F508del-CFTR FRT cells rescued at 32 °C for 24 h; design: expressed in transfected cells; key to Emax: fold increase in F508del-CFTR rescue relative to hit 3 (normalized); settings: for EC50: F508del-CFTR FRT cells rescued at 32 °C for 24 h, plus forskolin, mean ± SD (n = 3–6), n.a.: not active (up to 20 μM); for Emax: supplementary csv, same data as Tables 1–3
Procedure: The chemical library was screened in duplicate on a Fischer rat thyroid (FRT) cell line, stably coexpressing F508del-CFTR and the halide-sensitive yellow fluorescent protein, HS-YFP.[23],[34],[35] To overcome the F508del trafficking defect, cells were initially incubated for 24 h at 32 °C and then acutely treated (15–30 min) with a single compound (5 μM) in combination with forskolin (10 μM). After stimulation, the F508del-CFTR activity in the plasma membrane was calculated by measuring the rate of fluorescence quenching arising from iodide influx.[34] This activity was compared to that of wells containing forskolin alone (negative control) or forskolin plus VX-770 (1 μM, as a positive control) (Figure 2A). Analysis of screening performance with the Z′ method gave a score of 0.6, which can be considered optimal for this type of assay. The activity scores for each compound were then plotted as an ordered distribution (Figure 2B). All compounds whose average activity calculated from the two rounds of screening was greater than 185% with respect to the negative control (i.e., forskolin alone) were considered as primary hits.
The primary hits were confirmed by testing them at different concentrations, in order to extrapolate the dose–response relationship. First, we focused on the F508del mutant. The compounds were tested in the low micromolar range, in the presence of forskolin (10 μM), on F508del-CFTR FRT cells following rescue of the trafficking defect by low-temperature incubation, as done for the primary screening. The most interesting hits were subsequently tested for their ability to overcome the more severe gating defect of pure class III mutant using FRT cells stably expressing G551D-CFTR (Figure 3B).
The role of the heteroaryl group (A) acylating the position 2 of the tetrahydro-γ-carboline was initially explored by modifying the substituent on the pyrazolyl residue and replacing the pyrazole with other rings, while keeping the 8-methoxy carboline moiety unmodified. The activity of each compound is described in terms of normalized maximal efficacy (Emax), the maximum fold increase in the rescue of F508del-CFTR activity with respect to hit 3, and potency (EC50), the concentration producing half-maximal efficacy.
FRT cells stably expressing mutant F508del-CFTR or G551D-CFTR and the halide-sensitive yellow fluorescent protein (HS-YFP) YFP-H148Q/I152L and CFBE41o-cells stably expressing F508del-CFTR and HS-YFP were generated as previously described.[21],[57] FRT cells were cultured using the Coon’s modification of Ham’s F12 medium, while CFBE41o-cells were cultured in the modified Eagle’s medium. Media were supplemented with 10% fetal calf serum, 2 mM L-glutamine, 100 U/mL of penicillin, and […] of streptomycin. For functional assays of CFTR activity based on the HS-YFP assays, CFBE41o- or FRT cells were plated (50,000 cells/well) on clear-bottom 96-well black microplates (Corning Life Sciences, Acton, MA). The following day, cells were assayed. In the case of FRT cells expressing F508del-CFTR, plates were kept at 32 °C (or treated with correctors at 37 °C where indicated) for an additional 24 h to rescue the mutant trafficking defect, before assays.
Prior assay, cells were washed with phosphate-buffered saline (PBS) containing (in mM) 137 NaCl, 2.7 KCl, 8.1 Na2HPO4, 1.5 KH2PO4, 1 CaCl2, and 0.5 MgCl2. Cells were then incubated for 25 min with 60 μL of PBS plus forskolin (20 μM) and test compounds (at the desired concentration) to stimulate mutant CFTR. Cells were then transferred to microplate readers (FluoStar Optima; BMG Labtech, Offenburg, Germany) for CFTR activity determination. The plate readers were equipped with high-quality excitation (HQ500/20X: 500 ± 10 nm) and emission (HQ535/30M: 535 ± 15 nm) filters for YFP (Chroma Technology). […]

[3] = target: T2, CFTR (Homo sapiens, UniProt P13569); assay: Short-circuit current recordings on primary HBE cells from non-CF individuals
T2 construct: primary human bronchial epithelial (HBE) cells, from non-CF individuals; endogenous in cells; host or cells: primary human bronchial epithelial cells from non-CF individuals
Text: Subsequently, the ability of compounds to elicit CFTR-mediated chloride secretion was verified on primary human bronchial epithelial (HBE) cells, from non-CF individuals, in short-circuit current experiments. In this respect, it should be noticed that potentiators are also able to stimulate wild-type CFTR, provided that a submaximal cAMP-dependent stimulation is applied.[20],[22] Accordingly, cells were stimulated with a submaximal concentration of the cAMP analogue, CPT-cAMP, followed by increasing concentrations of the potentiator hit.[20],[22]
Finally, potentiator 39 and VX-770 were further evaluated in primary HBE cells from non-CF individuals, using short-circuit current measurements, to assess the ability of compounds to maximally activate CFTR function in the presence of a submaximal cAMP stimulation. After the addition of amiloride to inhibit sodium absorption through the ENaC channel, the potentiators were added at the maximal effective concentration (1 μM) after which epithelia were stimulated with a submaximal concentration of CPT-cAMP (5 μM), followed by a maximal concentration of the cAMP analogue (100 μM) (Figure 8). We then measured the extent of CFTR-mediated chloride current elicited by submaximal cAMP stimulation in the presence of a potentiator and compared it to total CFTR-mediated chloride current, determined as the current inhibited by CFTR inhibitor-172. In parallel, other epithelia were stimulated only with the two concentrations of the cAMP analogue, in the absence of a potentiator.
Primary bronchial epithelial cells were cultured as previously described.[58] In brief, epithelial cells were cultured in a serum-free medium (LHC9 mixed with RPMI 1640, 1:1) supplemented with hormones and supplements to support cell number amplification. Then, the cells were seeded at high density on porous membranes (500,000 cells for 1 cm^2 Snapwell inserts, for Ussing chamber studies; 200,000 cells for 0.33 cm^2 Mini-Transwell inserts, for TEER/PD measurements). After 24 h, the serum-free medium was replaced with Dulbecco’s modified Eagle’s medium (DMEM)/Ham’s F12 containing 2% fetal bovine serum (FBS) plus hormones and supplements. Differentiation of cells to form a tight epithelium was monitored by measuring transepithelial electrical resistance and potential difference with an epithelial voltohmmeter (EVOM1, World Precision Instruments). […]
Differentiated bronchial epithelia on Snapwell inserts were mounted in a Ussing chamber with internal fluid circulation. […] The short-circuit current was recorded with a PowerLab 4/25 (ADInstruments) analog-to-digital converter connected to a personal computer.

T1 sequence (P13569 with tags, fused parts or gaps DEL508-508): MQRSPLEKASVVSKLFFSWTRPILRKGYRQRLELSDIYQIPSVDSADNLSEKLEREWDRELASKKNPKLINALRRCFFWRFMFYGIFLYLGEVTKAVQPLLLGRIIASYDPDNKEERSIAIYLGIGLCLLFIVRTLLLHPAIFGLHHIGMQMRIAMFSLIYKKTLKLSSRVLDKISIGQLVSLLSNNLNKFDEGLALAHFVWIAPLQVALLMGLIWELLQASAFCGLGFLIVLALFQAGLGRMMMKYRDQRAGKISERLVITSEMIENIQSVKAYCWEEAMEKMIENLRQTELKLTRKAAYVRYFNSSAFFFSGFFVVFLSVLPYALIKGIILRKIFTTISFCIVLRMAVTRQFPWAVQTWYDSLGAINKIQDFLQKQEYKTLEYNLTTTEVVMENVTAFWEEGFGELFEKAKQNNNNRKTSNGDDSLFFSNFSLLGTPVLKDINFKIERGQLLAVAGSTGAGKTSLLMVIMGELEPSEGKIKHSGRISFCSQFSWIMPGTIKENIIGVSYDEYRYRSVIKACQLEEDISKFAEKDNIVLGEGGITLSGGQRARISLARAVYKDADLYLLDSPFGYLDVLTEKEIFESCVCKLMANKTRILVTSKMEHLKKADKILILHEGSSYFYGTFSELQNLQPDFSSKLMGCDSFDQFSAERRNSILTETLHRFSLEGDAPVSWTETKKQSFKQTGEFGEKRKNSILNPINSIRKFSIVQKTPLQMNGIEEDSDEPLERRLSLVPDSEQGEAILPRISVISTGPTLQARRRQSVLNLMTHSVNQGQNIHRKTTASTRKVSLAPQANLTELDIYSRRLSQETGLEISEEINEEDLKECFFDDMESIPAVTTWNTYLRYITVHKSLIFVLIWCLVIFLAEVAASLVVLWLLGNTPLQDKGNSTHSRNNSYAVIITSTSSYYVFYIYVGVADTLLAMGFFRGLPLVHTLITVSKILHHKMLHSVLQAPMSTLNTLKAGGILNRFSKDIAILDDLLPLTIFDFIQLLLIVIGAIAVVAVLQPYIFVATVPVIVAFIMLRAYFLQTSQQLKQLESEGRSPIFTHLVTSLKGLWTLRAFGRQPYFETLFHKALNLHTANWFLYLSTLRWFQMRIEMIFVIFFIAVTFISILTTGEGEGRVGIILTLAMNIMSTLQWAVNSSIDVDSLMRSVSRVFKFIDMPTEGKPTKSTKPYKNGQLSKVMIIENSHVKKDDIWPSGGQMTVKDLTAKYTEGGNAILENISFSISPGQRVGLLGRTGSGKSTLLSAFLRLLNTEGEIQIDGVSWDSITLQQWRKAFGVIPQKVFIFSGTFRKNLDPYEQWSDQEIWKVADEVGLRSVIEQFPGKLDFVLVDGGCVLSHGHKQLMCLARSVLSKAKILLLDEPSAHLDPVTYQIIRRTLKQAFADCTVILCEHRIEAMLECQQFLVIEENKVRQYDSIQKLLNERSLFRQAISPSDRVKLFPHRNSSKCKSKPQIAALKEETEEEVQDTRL
T2 sequence (P13569 whole entry): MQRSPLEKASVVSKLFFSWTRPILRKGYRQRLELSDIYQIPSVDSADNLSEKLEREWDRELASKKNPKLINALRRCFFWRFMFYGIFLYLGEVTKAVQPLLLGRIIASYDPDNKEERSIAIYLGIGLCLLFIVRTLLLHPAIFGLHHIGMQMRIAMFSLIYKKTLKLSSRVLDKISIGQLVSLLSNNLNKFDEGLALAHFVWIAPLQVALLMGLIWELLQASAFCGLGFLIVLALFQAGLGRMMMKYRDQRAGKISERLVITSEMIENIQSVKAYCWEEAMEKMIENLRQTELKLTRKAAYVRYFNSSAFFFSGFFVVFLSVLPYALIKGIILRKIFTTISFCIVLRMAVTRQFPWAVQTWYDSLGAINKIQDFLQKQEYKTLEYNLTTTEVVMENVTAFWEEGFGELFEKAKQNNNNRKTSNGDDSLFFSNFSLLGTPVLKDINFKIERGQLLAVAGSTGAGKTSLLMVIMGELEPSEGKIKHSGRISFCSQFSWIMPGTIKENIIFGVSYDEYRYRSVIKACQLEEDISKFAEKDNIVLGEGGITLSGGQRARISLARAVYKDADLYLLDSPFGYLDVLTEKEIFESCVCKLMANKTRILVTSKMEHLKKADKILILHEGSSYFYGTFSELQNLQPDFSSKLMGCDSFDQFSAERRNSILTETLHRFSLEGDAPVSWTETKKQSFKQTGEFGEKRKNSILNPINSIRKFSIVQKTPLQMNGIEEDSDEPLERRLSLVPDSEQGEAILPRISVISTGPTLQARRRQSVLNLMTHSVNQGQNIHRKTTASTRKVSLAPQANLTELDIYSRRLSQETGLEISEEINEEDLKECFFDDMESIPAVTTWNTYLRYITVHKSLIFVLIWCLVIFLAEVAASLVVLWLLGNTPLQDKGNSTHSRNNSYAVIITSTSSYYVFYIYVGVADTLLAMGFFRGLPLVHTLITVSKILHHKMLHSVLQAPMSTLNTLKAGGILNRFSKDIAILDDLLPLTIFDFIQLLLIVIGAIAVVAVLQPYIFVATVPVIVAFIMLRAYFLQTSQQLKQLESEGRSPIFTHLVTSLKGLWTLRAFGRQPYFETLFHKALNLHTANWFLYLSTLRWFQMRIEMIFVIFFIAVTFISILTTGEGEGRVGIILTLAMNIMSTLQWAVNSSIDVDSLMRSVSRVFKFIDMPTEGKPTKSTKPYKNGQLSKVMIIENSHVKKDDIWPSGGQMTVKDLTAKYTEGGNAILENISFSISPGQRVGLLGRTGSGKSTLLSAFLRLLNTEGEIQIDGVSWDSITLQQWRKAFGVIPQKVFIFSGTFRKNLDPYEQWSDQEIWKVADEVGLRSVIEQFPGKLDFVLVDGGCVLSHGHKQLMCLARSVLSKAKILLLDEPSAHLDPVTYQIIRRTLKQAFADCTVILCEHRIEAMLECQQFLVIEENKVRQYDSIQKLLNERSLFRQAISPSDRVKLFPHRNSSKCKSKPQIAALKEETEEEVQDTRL

dose-dependent activation of mutant CFTR [1] | EC50 [2] [µM] | Emax [2] | comparison of effectiveness of potentiators ([3]; 1 μM for both compounds, Figure 8B) | increase of the fraction of CFTR-mediated chloride current activated by submaximal cAMP stimulation ([3]; potentiator 1 μM, CPT-cAMP 5 μM, versus no potentiator) | Structure (SMILES)
the most effective | 0.12 ± 0.014 | 1.04 ± 0.07 | – | – | CN(C)c1ccc2cc(C(=O)N3CCc4[nH]c5ccccc5c4C3)[nH]c2c1 [Compound 1, (6-(Dimethylamino)-1H-indol-2-yl)-(1,3,4,5-tetrahydro-2H-pyrido[4,3-b]indol-2-yl)methanone]
– | – | – | similarly effective | more than 2 fold | CC(C)(C)c1cc(C(C)(C)C)c(NC(=O)c2c[nH]c3ccccc3c2=O)cc1O [VX-770, reference compound]
– | 10.5 ± 2.2 | 0.28 ± 0.04 | – | – | CS(=O)(=O)c1ccc2[nH]c3c(c2c1)CN(C(=O)c1cc(C(F)(F)F)[nH]n1)CC3 [Compound 24, (8-(Methylsulfonyl)-1,3,4,5-tetrahydro-2H-pyrido[4,3-b]indol-2-yl)-(5-(trifluoromethyl)-1H-pyrazol-3-yl)methanone]
– | 0.23 ± 0.08 | 0.70 ± 0.02 | – | – | Cc1cc(F)c2[nH]c3c(c2c1)CN(C(=O)c1cc(C(F)(F)F)[nH]n1)CC3 [Compound 26, (6-Fluoro-8-methyl-1,3,4,5-tetrahydro-2H-pyrido[4,3-b]indol-2-yl)-(5-(trifluoromethyl)-1H-pyrazol-3-yl)methanone]
– | 1.4 ± 0.9 | 0.69 ± 0.09 | – | – | CC(C)c1ccc2[nH]c3c(c2c1)CN(C(=O)c1cc(C(F)(F)F)[nH]n1)CC3 [Compound 18, (8-Isopropyl-1,3,4,5-tetrahydro-2H-pyrido[4,3-b]indol-2-yl)-(5-(trifluoromethyl)-1H-pyrazol-3-yl)methanone]
